# Reference: patent US7319089B2, “Maurocalcine, analogues thereof and their therapeutical uses” (priority 2000, dated 2008)
# Where “and” joins values, the source holds several entries; their conditions need not be identical. Equal entries are not always repeated. Entries after “also recorded” stand apart in the source; their conditions may differ. Positions of bridges follow the written chain, without caps; N, C: chain ends. Residues, ends and D or L forms follow the SMILES beside them.
# Key:
# [1] = molecular target: T1, type 1 ryanodine receptor (RyR1) (Homo sapiens, UniProt P21817); format: biochemical; set-up: sMCa-modified channels blocked by ruthenium red: dose or concentration left out as unconfirmed; details: for reversibility of the induced subconductance states on perfusion of the cis chamber: channel modified by sMCa and ryanodine, trace 5
# T1 construct: from tissue; host or cells: sarcoplasmic reticulum (SR) vesicles
# Description: Single-channel recording: Cs^+ current through single RyR1 channels incorporated into planar lipid bilayers (BLM) was measured in an asymmetric CsCl (10:1 cis:trans) solution. The BLM was formed from a mixture of phosphatidylethanolamine and phosphatidylcholine (5:2, w/w) at 30-50 mg/ml in decane, across a […] aperture in a 1.0 ml polystyrene cup. SR vesicles were added to the cis side of chamber at a final concentration of 0.1-10 mg/ml. The cis solution contained 500 mM CsCl, ˜7 mM CaCl2, 20 mM HEPES, pH 7.4, and the trans solution contained 50 mM CsCl, 7 mM free Ca^2+, 20 mM HEPES, pH 7.4. The monovalent cation Cs^+ was used as permeant ion instead of divalent cations (such as Ca^2+) owing to its better permeability through RyR1. After a single fusion event, sarcoplasmic reticulum (SR) vesicles in cis chamber were quickly removed by perfusion with 9× volume of is solution. Single-channel current was measured under voltage clamp using a Dagan 3900 amplifier (Dagan Instruments, Minneapolis, Minn.). Holding potentials were with respect to the trans (ground) chamber, and positive current was defined as current flowing from cis to trans. Current signals were captured at 10 kHz and filtered at 1 kHz using a four pole Bessel filter. Data was digitized with a Digidata 1200 interface (Axon Instruments, Burlingame, Calif.) and stored on computer for subsequent analysis. Unless otherwise stated, test chemicals were sequentially added to the cis solution after an initial period of recording control channel behaviour. Single channel activity was analyzed with pCLAMP 7.0 (Axon Instruments). Current levels were analyzed by mean-variance analysis and peaks in the all-points amplitude histogram were fitted with Gaussian functions. The all-points amplitude histograms were constructed from selected segments-of data 20-150 sec in length to quantify the incidence of full and subconductance states.
# To test this hypothesis, we performed electrophysiological experiments on single RyR1 channels incorporated into planar lipid bilayers.
# [2] = molecular target: T1, type 1 ryanodine receptor (RyR1); details: comparison with sMCa; cited from earlier work
# mice = assay: Lethality after intracerebroventricular injection in mice
# [3] = sMCa and ryanodine (1 μM) both present
# T1 sequence (P21817 whole entry, species assumed, the tested form may be a part): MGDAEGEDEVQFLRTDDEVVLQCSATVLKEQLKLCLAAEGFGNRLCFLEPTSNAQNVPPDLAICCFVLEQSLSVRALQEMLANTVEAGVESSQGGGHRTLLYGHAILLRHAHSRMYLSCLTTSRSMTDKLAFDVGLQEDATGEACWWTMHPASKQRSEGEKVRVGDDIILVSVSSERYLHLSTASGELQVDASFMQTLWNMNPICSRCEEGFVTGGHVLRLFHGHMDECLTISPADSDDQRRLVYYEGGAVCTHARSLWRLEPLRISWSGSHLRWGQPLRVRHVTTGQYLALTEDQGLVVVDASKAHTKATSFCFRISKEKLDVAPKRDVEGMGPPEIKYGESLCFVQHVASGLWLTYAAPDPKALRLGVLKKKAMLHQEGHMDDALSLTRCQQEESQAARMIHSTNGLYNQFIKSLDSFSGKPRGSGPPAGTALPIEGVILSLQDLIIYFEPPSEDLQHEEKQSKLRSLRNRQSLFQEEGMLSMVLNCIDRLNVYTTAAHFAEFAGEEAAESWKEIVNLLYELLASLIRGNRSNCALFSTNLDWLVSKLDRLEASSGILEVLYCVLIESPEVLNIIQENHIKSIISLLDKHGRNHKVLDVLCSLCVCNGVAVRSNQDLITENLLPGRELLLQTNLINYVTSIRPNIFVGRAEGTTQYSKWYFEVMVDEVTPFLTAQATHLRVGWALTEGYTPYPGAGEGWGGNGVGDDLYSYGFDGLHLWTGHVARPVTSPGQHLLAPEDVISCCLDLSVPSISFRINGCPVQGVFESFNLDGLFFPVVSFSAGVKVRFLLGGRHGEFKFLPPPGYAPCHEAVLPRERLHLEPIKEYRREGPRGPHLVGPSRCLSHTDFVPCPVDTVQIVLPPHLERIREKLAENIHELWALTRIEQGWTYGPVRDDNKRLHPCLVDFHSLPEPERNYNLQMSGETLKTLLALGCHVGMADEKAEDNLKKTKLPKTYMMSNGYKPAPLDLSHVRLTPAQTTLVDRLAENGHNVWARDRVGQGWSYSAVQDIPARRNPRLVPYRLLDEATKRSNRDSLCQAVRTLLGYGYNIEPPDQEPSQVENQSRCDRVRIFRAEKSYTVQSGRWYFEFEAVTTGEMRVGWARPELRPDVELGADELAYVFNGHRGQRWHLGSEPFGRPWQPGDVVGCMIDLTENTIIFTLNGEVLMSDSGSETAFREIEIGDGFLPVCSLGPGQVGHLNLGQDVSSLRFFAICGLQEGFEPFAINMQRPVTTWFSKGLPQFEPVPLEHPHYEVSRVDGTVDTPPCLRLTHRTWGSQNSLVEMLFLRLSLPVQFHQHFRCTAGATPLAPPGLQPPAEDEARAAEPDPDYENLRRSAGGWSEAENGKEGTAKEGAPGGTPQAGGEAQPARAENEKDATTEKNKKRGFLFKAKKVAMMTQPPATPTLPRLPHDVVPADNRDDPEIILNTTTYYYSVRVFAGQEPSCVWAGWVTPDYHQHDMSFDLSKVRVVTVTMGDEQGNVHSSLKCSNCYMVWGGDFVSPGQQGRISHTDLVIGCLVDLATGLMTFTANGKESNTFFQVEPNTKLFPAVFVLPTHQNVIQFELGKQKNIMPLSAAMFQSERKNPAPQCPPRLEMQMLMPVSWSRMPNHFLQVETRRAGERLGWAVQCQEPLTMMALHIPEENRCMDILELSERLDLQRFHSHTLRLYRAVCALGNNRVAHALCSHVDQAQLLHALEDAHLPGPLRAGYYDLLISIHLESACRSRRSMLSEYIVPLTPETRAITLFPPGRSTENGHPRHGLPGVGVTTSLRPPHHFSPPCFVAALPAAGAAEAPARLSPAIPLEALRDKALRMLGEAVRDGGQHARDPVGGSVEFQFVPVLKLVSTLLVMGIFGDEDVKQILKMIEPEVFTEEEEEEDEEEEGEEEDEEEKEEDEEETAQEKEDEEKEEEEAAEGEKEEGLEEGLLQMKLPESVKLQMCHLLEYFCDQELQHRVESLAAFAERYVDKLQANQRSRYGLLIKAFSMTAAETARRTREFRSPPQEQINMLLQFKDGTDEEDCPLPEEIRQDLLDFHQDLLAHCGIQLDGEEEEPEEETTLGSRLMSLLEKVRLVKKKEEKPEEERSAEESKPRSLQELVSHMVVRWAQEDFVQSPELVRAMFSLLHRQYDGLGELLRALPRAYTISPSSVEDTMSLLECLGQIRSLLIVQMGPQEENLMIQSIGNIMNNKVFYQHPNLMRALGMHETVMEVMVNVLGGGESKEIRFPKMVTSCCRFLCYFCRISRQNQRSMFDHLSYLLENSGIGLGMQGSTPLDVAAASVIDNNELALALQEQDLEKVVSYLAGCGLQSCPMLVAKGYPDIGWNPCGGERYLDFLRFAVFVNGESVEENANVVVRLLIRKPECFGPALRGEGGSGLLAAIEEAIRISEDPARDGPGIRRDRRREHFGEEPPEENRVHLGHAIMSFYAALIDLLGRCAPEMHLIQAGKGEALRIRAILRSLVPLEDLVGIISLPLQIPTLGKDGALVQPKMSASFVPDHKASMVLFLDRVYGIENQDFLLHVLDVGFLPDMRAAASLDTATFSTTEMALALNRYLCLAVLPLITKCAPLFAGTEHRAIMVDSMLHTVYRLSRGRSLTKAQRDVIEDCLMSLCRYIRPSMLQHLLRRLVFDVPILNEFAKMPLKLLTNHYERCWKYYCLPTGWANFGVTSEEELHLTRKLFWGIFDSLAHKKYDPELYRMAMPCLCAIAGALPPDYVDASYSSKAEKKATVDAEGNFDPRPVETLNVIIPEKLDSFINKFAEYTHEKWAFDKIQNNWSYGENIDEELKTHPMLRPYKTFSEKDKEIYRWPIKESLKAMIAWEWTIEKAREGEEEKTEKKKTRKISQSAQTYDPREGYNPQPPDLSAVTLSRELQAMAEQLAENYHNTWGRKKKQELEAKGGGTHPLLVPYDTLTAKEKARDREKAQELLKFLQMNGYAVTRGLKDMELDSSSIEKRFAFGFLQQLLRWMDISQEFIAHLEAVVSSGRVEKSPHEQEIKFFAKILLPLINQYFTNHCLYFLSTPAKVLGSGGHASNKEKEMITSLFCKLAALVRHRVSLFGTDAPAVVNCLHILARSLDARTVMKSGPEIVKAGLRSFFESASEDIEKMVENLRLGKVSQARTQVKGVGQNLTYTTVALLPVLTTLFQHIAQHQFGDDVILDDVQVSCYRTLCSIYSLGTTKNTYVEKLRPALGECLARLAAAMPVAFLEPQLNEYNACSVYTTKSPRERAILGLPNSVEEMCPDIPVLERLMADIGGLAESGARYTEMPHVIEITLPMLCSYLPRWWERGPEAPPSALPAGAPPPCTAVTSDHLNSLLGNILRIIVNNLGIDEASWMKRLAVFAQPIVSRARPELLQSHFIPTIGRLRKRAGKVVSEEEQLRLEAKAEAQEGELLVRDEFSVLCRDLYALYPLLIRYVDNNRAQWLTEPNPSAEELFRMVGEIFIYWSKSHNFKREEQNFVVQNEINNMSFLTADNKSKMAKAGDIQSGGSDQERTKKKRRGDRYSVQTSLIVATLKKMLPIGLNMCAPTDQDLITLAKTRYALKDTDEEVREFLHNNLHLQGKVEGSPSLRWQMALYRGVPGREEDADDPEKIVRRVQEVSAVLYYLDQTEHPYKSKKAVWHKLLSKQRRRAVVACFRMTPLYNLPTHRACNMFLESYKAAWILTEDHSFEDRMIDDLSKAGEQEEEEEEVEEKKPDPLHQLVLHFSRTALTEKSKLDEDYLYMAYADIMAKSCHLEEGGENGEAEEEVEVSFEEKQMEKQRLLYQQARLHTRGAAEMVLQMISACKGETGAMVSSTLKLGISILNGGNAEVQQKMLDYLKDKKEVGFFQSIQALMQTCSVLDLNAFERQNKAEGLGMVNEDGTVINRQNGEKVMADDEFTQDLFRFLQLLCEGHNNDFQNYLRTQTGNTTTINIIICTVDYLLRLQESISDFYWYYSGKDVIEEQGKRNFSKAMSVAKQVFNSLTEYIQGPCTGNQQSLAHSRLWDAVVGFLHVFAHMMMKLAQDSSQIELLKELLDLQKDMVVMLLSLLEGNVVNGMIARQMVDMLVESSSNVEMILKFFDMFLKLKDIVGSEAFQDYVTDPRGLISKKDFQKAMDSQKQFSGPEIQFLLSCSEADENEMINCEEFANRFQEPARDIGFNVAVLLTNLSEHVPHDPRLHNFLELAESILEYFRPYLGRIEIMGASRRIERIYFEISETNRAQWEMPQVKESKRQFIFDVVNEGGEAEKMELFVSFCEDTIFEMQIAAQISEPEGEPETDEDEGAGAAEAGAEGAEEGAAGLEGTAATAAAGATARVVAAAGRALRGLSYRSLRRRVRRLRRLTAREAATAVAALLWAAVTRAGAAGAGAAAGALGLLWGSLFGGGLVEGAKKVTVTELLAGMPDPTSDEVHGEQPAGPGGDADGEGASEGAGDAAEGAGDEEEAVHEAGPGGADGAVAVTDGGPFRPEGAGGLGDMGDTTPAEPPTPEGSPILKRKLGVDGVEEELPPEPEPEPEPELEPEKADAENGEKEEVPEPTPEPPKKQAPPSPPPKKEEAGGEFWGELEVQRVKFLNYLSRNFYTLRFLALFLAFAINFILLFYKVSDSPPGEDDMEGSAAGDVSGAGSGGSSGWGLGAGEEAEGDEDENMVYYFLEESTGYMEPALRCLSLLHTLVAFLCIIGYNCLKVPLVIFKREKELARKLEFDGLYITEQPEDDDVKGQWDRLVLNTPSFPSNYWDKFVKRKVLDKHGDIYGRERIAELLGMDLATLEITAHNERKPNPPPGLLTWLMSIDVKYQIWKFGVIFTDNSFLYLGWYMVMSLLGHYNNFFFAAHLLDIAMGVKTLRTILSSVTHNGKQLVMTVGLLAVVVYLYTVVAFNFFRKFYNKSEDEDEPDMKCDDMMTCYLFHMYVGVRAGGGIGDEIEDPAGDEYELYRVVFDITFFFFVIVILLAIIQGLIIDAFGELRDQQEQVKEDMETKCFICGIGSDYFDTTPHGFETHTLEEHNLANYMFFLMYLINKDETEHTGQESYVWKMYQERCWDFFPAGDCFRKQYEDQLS
molecule,measurement,setting,value
ryanodine [reference compound],reversibility of the induced subconductance states on perfusion of the cis chamber,[1],ryanodine-mediated half-states persisted
same,sMCa-modified channels subsequently modified by ryanodine,[1]; ryanodine 1 μM,Four out of five channels
"Imperatoxin A (GDCLPHLKRCKADNDCCGKKCKRRGTNAEKRCR; UniProt P59868 1-33, looked up) [IpTx A]",conductance state of RyR1 favoured,[2],⅓
"CC[C@H](C)[C@@H]1NC(=O)[C@H](CC(N)=O)NC(=O)[C@H]([C@@H](C)O)NC(=O)CNC(=O)[C@H](CCCNC(=N)N)NC(=O)[C@H](CCCNC(=N)N)NC(=O)[C@H](CCCCN)NC(=O)[C@@H]2CSSC[C@@H]3NC(=O)[C@H](CC(C)C)NC(=O)[C@H](CCCCN)NC(=O)[C@H](CC(C)C)NC(=O)[C@H](Cc4c[nH]cn4)NC(=O)[C@@H]4CCCN4C(=O)[C@H](CC(C)C)NC(=O)[C@@H](NC(=O)[C@H](CC(=O)O)NC(=O)CN)CSSC[C@H](NC(=O)[C@H](CSSC[C@@H](C(=O)N[C@@H](CCCNC(=N)N)C(=O)O)NC(=O)[C@H](CCCNC(=N)N)NC(=O)[C@H](CCCCN)NC(=O)[C@H](CCC(=O)O)NC1=O)NC(=O)[C@H](CC(=O)O)NC(=O)[C@H](CCCCN)NC(=O)[C@H](CC(N)=O)NC(=O)[C@H](CCC(=O)O)NC(=O)[C@H](CCCCN)NC3=O)C(=O)N[C@@H](CO)C(=O)N[C@@H](CCCCN)C(=O)N[C@@H](CCCCN)C(=O)N2 [sMCa, maurocalcine] (H-GDCLPHLKLCKENKDCCSKKCKRRGTNIEKRCR-OH; disulfide 3-17, 10-21, 16-32)",reversibility of the induced subconductance states on perfusion of the cis chamber,[1],reversed the sMCa-induced quarter states
same,"effect on RyR1 channel gating, toxin applied on the cis (cytoplasmic) side","[1]; nanomolar concentration (5 nM to 1 μM), cis chamber",dramatically modified the channel gating behavior; also recorded: potently and reversibly modifies channel gating behaviour; also recorded: potently activates RyR1 channels
same,"minor subconductance induced, fraction of the full conductance level","[1]; sMCa alone, cis, to a smaller extent",one-quarter
same,"predominant subconductance induced, fraction of the characteristic full conductance","[1]; sMCa alone, cis, traces 1-3",one-half
same,"half subconductance, % of the characteristic control conductance level",[1]; [3],~50.5% and 51%
same,"quarter subconductance, % of the characteristic control conductance level",[1]; [3],~29.3% and 29%
same,"effect on RyR1, toxin applied on the trans (luminal) side",[1]; trans side,No effect
same,LD50,mice,20 μg per mouse
"N.N.N.N.N.N.N.N.N.N.N.N.N.N.[Cl-].[Cl-].[Cl-].[Cl-].[Cl-].[Cl-].[O-2].[O-2].[Ru+3].[Ru+3].[Ru+4] [ruthenium red, reference compound]",block of the ryanodine/sMCa modified channel,[1],completely blocked
same,sMCa-modified channels blocked by ruthenium red,[1]; ruthenium red,Five out of six channels
